Here are results for 17 molecules from patent US7906507B2, “Oxadiazoanthracene compounds for the treatment of diabetes” (TransTech Pharma, Inc., priority 2008, dated 2011).

In the test the target is T1, cloned human GLP-1 receptor (Homo sapiens, UniProt P43220).
T1 construct: expressed in transfected cells; host or cells: CHO or HEK-293 cells
Briefly: Functional cell-based assay: cAMP functional assay. Conditions: for Emax: 0.5 h, percentage relative to maximal GLP-1-induced cAMP accumulation, na = not active in the assay, read-out: % activation. The procedure:
Following overnight incubation of cells, media was removed, and compounds (at concentrations ranging from 0.0001 to 100 μM) were added to monolayer cells in Iscove's modified dulbecco's medium (IMDM), 100 μM RO 20-1724 PDE inhibitor, 0.1% BSA, 2% DMSO in a final volume of 100 μL, and incubated for 30 min at 37° C. 95% O2, 5% CO2 in a humidified incubator. cAMP was quantitated using a homogenous time-resolved fluorescence detection system (cAMP dynamic, CIS bio International).

T1 sequence (P43220 24-463): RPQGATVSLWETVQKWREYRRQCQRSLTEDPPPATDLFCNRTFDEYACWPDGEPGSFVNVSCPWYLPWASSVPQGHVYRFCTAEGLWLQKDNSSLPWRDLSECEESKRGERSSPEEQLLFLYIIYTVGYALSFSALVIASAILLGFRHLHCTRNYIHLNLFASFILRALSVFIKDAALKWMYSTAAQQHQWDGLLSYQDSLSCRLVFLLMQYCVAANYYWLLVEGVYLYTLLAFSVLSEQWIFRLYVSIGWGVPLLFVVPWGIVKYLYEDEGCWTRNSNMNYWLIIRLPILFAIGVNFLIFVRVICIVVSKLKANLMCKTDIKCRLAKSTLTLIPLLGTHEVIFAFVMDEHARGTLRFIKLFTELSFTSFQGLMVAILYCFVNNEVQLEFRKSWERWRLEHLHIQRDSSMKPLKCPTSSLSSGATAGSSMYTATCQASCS

Consider `CN(C)C(=O)N1Cc2cc3c(cc2C[C@H]1C(=O)N[C@@H](Cc1ccc(-c2ccc(C#N)cc2)cc1)C(=O)O)NC(=O)C(c1ccc(OCc2ccc(Cl)c(Cl)c2)cc1)O3` (stereo partly drawn) [Example 33, (S)-3-(4′-Cyano-biphenyl-4-yl)-2-({(S)-3-[4-(3,4-dichloro-benzylozy)-phenyl]-2-oxo-6-dimethylcarbamoyl-2-oxo-2,3,5,6,7,8-hexahydro-1H-4-oxa-1,6-diaza-anthracene-7-carbonyl}-amino)-propionic acid], for which the concentration giving a half-maximal response (EC50) – broadly, the concentration needed to bring the measured effect to its halfway point – worked out at 1300 nM and the Emax was 7%.

On to `N#Cc1ccc(-c2ccc(C[C@H](NC(=O)[C@@H]3Cc4cc5c(cc4CN3Cc3ccccc3)OC(c3ccc(OCc4ccc(Cl)c(Cl)c4)cc3)C(=O)N5)C(=O)O)cc2)cc1` (stereo partly drawn) [Example 34, (S)-2-({(S)-6-Benzyl-3-[4-(3,4-dichloro-benzyloxy)-phenyl]-2-oxo-2,3,5,6,7,8-hexahydro-1H-4-oxa-1,6-diaza-anthracene-7-carbonyl}-amino)-3-(4′-cyano-biphenyl-4-yl)-propionic acid], for which the EC50 was 160 nM and the Emax worked out at 31%.

On to `N#Cc1ccc(-c2ccc(C[C@H](NC(=O)[C@@H]3Cc4cc5c(cc4CN3CCc3ccccc3)OC(c3ccc(OCc4ccc(Cl)c(Cl)c4)cc3)C(=O)N5)C(=O)O)cc2)cc1` (stereo partly drawn) [Example 35, (S)-3-(4′-Cyano-biphenyl-4-yl)-2-({(S)-3-[4-(3,4-dichloro-benzyloxy)-phenyl]-2-oxo-6-phenethyl-2,3,5,6,7,8-hexahydro-1H-4-oxa-1,6-diaza-anthracene-7-carbonyl}-amino)-propionic acid], for which a half-maximal response (EC50) required 1200 nM and the Emax was found to be 16%.

On to `N#Cc1ccc(-c2ccc(C[C@H](NC(=O)[C@@H]3Cc4cc5c(cc4CN3C(=O)c3c(F)cc(F)cc3F)OC(c3ccc(OCc4ccc(Cl)c(Cl)c4)cc3)C(=O)N5)C(=O)O)cc2)cc1` (stereo partly drawn) [Example 36, (S)-3-(4′-Cyano-biphenyl-4-yl)-2-{[(S)-3-[4-(3,4-dichloro-benzyloxy)-phenyl]-2-oxo-6-(2,4,6-trifluoro-benzoyl)-2,3,5,6,7,8-hexahydro-1H-4-oxa-1,6-diaza-anthracene-7-carbonyl]-amino}-propionic acid], for which the response was half-maximal at 660 nM (EC50) and the Emax came out at 13%.

In the case of `Cc1ccccc1S(=O)(=O)N1Cc2cc3c(cc2C[C@H]1C(=O)N[C@@H](Cc1ccc(-c2ccc(C#N)cc2)cc1)C(=O)O)NC(=O)C(c1ccc(OCc2ccc(Cl)c(Cl)c2)cc1)O3` (stereo partly drawn) [Example 37, (S)-3-(4′-Cyano-biphenyl-4-yl)-2-{[(S)-3-[4-(3,4-dichloro-benzyloxy)-phenyl]-2-oxo-6-(toluene-2-sulfonyl)-2,3,5,6,7,8-hexahydro-1H-4-oxa-1,6-diaza-anthracene-7-carbonyl]-amino}-propionic acid], the midpoint of the response, the EC50, lay at 490 nM and the Emax amounted to 32%.

Regarding `Cc1ccccc1CN1Cc2cc3c(cc2C[C@H]1C(=O)N[C@@H](Cc1ccc(-c2ccc(C#N)cc2)cc1)C(=O)O)NC(=O)C(c1ccc(OCc2ccc(Cl)c(Cl)c2)cc1)O3` (stereo partly drawn) [Example 38, (S)-3-(4′-Cyano-biphenyl-4-yl)-2-{[(S)-3-[4-(3,4-dichloro-benzyloxy)-phenyl]-6-(2-methyl-benzyl)-2-oxo-2,3,5,6,7,8-hexahydro-1H-4-oxa-1,6-diaza-anthracene-7-carbonyl]-amino}-propionic acid], the EC50 worked out at 710 nM and the Emax is 32%.

`N#Cc1ccc(-c2ccc(C[C@H](NC(=O)[C@@H]3Cc4cc5c(cc4CN3Cc3cccs3)OC(c3ccc(OCc4ccc(Cl)c(Cl)c4)cc3)C(=O)N5)C(=O)O)cc2)cc1` (stereo partly shown) [Example 40]: a half-maximal effect (EC50) was put at 1200 nM and the Emax was 34%.

In the case of `N#Cc1ccc(-c2ccc(C[C@H](NC(=O)[C@@H]3Cc4cc5c(cc4CN3Cc3ccccc3F)OC(c3ccc(OCc4ccc(Cl)c(Cl)c4)cc3)C(=O)N5)C(=O)O)cc2)cc1` (stereo partly drawn) [Example 41, (S)-3-(4′-Cyano-biphenyl-4-yl)-2-{[(S)-3-[4-(3,4-dichloro-benzyloxy)-phenyl]-6-(2-fluoro-benzyl)-2-oxo-2,3,5,6,7,8-hexahydro-1H-4-oxa-1,6-diaza-anthracene-7-carbonyl]-amino}-propionic acid], the concentration for a half-maximal effect (EC50) was 430 nM and the Emax was found to be 42%.

With `N#Cc1ccc(-c2ccc(C[C@H](NC(=O)[C@@H]3Cc4cc5c(cc4CN3Cc3ccccc3Cl)OC(c3ccc(OCc4ccc(Cl)c(Cl)c4)cc3)C(=O)N5)C(=O)O)cc2)cc1` (stereo partly drawn) [Example 42, (S)-2-({(S)-6-(2-Chloro-benzyl)-3-[4-(3,4-dichloro-benzyloxy)-phenyl]-2-oxo-2,3,5,6,7,8-hexahydro-1H-4-oxa-1,6-diaza-anthracene-7-carbonyl}-amino)-3-(4′-cyano-biphenyl-4-yl)-propionic acid], a half-maximal response (EC50) required 1000 nM and the Emax was 56%.

Turning to `COc1ccccc1CN1Cc2cc3c(cc2C[C@H]1C(=O)N[C@@H](Cc1ccc(-c2ccc(C#N)cc2)cc1)C(=O)O)NC(=O)C(c1ccc(OCc2ccc(Cl)c(Cl)c2)cc1)O3` (stereo partly drawn) [Example 43, (S)-3-(4′-Cyano-biphenyl-4-yl)-2-{[(S)-3-[4-(3,4-dichloro-benzyloxy)-phenyl]-6-(2-methoxy-benzyl)-2-oxo-2,3,5,6,7,8-hexahydro-1H-4-oxa-1,6-diaza-anthracene-7-carbonyl]-amino}-propionic acid], the EC50 came out at 500 nM and the Emax stood at 34%.

For the molecule `Cc1cccc(CN2Cc3cc4c(cc3C[C@H]2C(=O)N[C@@H](Cc2ccc(-c3ccc(C#N)cc3)cc2)C(=O)O)NC(=O)C(c2ccc(OCc3ccc(Cl)c(Cl)c3)cc2)O4)n1` (stereo partly drawn) [Example 44, (S)-3-(4′-Cyano-biphenyl-4-yl)-2-{[(S)-3-[4-(3,4-dichloro-benzyloxy)-phenyl]-6-(6-methyl-pyridin-2-ylmethyl)-2-oxo-2,3,5,6,7,8-hexahydro-1H-4-oxa-1,6-diaza-anthracene-7-carbonyl]-amino}-propionic acid], the EC50 is 1000 nM and the Emax was 25%.

For `N#Cc1ccc(-c2ccc(C[C@H](NC(=O)[C@@H]3Cc4cc5c(cc4CN3Cc3cccc(Br)n3)OC(c3ccc(OCc4ccc(Cl)c(Cl)c4)cc3)C(=O)N5)C(=O)O)cc2)cc1` (stereo partly drawn) [Example 45, (S)-2-({(S)-6-(6-Bromo-pyridin-2-ylmethyl)-3-[4-(3,4-dichloro-benzyloxy)-phenyl]-2-oxo-2,3,5,6,7,8-hexahydro-1H-4-oxa-1,6-diaza-anthracene-7-carbonyl}-amino)-3-(4′-cyano-biphenyl-4-yl)-propionic acid], the EC50 amounted to 1000 nM and the Emax was found to be 18%.

For `CSc1nc(CN2Cc3cc4c(cc3C[C@H]2C(=O)N[C@@H](Cc2ccc(-c3ccc(C#N)cc3)cc2)C(=O)O)NC(=O)C(c2ccc(OCc3ccc(Cl)c(Cl)c3)cc2)O4)ccc1C#N` (stereo partly drawn) [Example 46, (S)-3-(4′-Cyano-biphenyl-4-yl)-2-({(S)-6-(5-cyano-6-methylsulfanyl-pyridin-2-ylmethyl)-3-[4-(3,4-dichloro-benzyloxy)-phenyl]-2-oxo-2,3,5,6,7,8-hexahydro-1H-4-oxa-1,6-diaza-anthracene-7-carbonyl}-amino)-propionic acid], the EC50 worked out at 1000 nM and the Emax was determined as 22%.

As for `N#Cc1ccc(-c2ccc(C[C@H](NC(=O)[C@@H]3Cc4cc5c(cc4CN3Cc3ncc[nH]3)OC(c3ccc(OCc4ccc(Cl)c(Cl)c4)cc3)C(=O)N5)C(=O)O)cc2)cc1` (stereo partly drawn) [Example 47, (S)-3-(4′-Cyano-biphenyl-4-yl)-2-{[(S)-3-[4-(3,4-dichloro-benzyloxy)-phenyl]-6-(1H-imidazol-2-ylmethyl)-2-oxo-2,3,5,6,7,8-hexahydro-1H-4-oxa-1,6-diaza-anthracene-7-carbonyl]-amino}-propionic acid], a half-maximal effect (EC50) was put at 1200 nM and the Emax amounted to 29%.

In the case of `Cn1ccnc1CN1Cc2cc3c(cc2C[C@H]1C(=O)N[C@@H](Cc1ccc(-c2ccc(C#N)cc2)cc1)C(=O)O)NC(=O)C(c1ccc(OCc2ccc(Cl)c(Cl)c2)cc1)O3` (stereo partly drawn) [Example 48, (S)-3-(4′-Cyano-biphenyl-4-yl)-2-{[(S)-3-[4-(3,4-dichloro-benzyloxy)-phenyl]-6-(1-methyl-1H-imidazol-2-ylmethyl)-2-oxo-2,3,5,6,7,8-hexahydro-1H-4-oxa-1,6-diaza-anthracene-7-carbonyl]-amino}-propionic acid], the concentration for a half-maximal effect (EC50) is 895 nM and the Emax is 64%.

`N#Cc1ccc(-c2ccc(C[C@H](NC(=O)[C@@H]3Cc4cc5c(cc4CN3Cc3nccs3)OC(c3ccc(OCc4ccc(Cl)c(Cl)c4)cc3)C(=O)N5)C(=O)O)cc2)cc1` (stereo partly drawn) [Example 49, (S)-3-(4′-Cyano-biphenyl-4-yl)-2-({(S)-3-[4-(3,4-dichloro-benzyloxy)-phenyl]-2-oxo-6-thiazol-2-ylmethyl-2,3,5,6,7,8-hexahydro-1H-4-oxa-1,6-diaza-anthracene-7-carbonyl}-amino)-propionic acid]: the EC50 was determined as 557 nM and the Emax amounted to 57%.

Take `N#Cc1ccc(-c2ccc(C[C@H](NC(=O)[C@@H]3Cc4cc5c(cc4CN3C(=O)c3ccccn3)OC(c3ccc(OCc4ccc(Cl)c(Cl)c4)cc3)C(=O)N5)C(=O)O)cc2)cc1` (stereo partly drawn) [Example 50, (S)-3-(4′-Cyano-biphenyl-4-yl)-2-{[(S)-3-[4-(3,4-dichloro-benzyloxy)-phenyl]-2-oxo-6-(pyridine-2-carbonyl)-2,3,5,6,7,8-hexahydro-1H-4-oxa-1,6-diaza-anthracene-7-carbonyl]-amino}-propionic acid]: a half-maximal response (EC50) required 1220 nM and the Emax amounted to 49%.
